Two compounds from ChEMBL document CHEMBL3882729, “Receptor-type kinase modulators and methods of use” (2009) can be followed below.

Some results are limits rather than exact numbers.

The target in assay [1] is T1, Ephrin type-B receptor 4 (Homo sapiens, UniProt P54760).
T1 sequence (P54760 whole entry): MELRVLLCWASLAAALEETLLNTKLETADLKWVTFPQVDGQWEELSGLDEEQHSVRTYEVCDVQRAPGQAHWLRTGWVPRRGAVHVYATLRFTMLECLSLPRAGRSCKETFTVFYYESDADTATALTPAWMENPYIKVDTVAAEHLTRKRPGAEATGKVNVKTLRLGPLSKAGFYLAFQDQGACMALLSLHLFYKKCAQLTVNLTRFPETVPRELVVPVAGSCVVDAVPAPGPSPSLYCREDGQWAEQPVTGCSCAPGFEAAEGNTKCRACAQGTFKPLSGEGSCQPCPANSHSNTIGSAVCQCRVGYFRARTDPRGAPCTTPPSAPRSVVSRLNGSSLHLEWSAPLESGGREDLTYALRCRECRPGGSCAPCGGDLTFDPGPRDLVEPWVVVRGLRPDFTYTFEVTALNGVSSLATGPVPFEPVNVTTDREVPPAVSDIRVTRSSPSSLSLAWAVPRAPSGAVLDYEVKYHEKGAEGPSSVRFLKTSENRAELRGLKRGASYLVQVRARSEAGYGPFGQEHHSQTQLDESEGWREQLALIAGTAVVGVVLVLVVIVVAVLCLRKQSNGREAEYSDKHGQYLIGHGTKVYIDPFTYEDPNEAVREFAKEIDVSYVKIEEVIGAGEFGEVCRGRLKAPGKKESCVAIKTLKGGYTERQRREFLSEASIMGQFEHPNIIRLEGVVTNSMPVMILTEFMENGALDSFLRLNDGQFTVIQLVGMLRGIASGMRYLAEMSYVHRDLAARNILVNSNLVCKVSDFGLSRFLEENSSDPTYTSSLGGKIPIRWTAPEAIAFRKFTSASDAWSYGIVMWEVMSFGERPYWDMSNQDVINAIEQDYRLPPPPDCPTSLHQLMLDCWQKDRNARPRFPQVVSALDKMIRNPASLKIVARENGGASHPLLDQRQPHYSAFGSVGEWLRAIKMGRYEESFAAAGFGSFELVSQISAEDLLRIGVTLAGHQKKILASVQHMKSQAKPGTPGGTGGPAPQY
Briefly: Inhibition of recombinant human N-terminal His6-tagged EphB4 kinase domain (E605 to E890 residues) expressed in baculovirus using poly-AEKY as substrate after 150 mins in presence of gamma33P-ATP by liquid scintillation spectrometry.

Assay [2] addresses Vascular endothelial growth factor receptor 2 (Homo sapiens, UniProt P35968). Briefly: Inhibition of recombinant human N-terminal GST-fused KDR (D807 to V1356 residues) expressed in baculovirus infected […] insect Sf9 cells using poly-EY as substrate after 240 mins by luciferase coupled chemiluminescence assay.
Assay [3] addresses Vascular endothelial growth factor receptor 1 (Homo sapiens, UniProt P17948). Put plainly: Inhibition of recombinant human N-terminal GST-tagged factor 10a cleavage site-fused Flt1 (K784 to I1338 residues) expressed in baculovirus infected insect Sf9 cells using poly-EY as substrate after 120 mins in presence of gamma33P-ATP by liquid scintillation spectrometry.
Assay [4] concerns the target Ephrin type-A receptor 2 (Homo sapiens, UniProt P29317). Put plainly: Inhibition of recombinant human N-terminal His6-tagged EphA2 (N598 to R890 residues) expressed in baculovirus using poly-EY as substrate after 180 mins by luciferase coupled chemiluminescence assay.
For assay [5], the target named is Receptor tyrosine-protein kinase erbB-2 (Homo sapiens, UniProt P04626). Put plainly: Inhibition of recombinant human N-terminal GST His6-tagged thrombin cleavage site-fused ErbB2 kinase domain (Q679 to V1255 residues) expressed in baculovirus infected insect Sf9 cells using biotinylated poly-EY as substrate after 60 mins by alphascreen assay.
Sequence of Receptor tyrosine-protein kinase erbB-2 (P04626 whole entry, the tested form may be a part): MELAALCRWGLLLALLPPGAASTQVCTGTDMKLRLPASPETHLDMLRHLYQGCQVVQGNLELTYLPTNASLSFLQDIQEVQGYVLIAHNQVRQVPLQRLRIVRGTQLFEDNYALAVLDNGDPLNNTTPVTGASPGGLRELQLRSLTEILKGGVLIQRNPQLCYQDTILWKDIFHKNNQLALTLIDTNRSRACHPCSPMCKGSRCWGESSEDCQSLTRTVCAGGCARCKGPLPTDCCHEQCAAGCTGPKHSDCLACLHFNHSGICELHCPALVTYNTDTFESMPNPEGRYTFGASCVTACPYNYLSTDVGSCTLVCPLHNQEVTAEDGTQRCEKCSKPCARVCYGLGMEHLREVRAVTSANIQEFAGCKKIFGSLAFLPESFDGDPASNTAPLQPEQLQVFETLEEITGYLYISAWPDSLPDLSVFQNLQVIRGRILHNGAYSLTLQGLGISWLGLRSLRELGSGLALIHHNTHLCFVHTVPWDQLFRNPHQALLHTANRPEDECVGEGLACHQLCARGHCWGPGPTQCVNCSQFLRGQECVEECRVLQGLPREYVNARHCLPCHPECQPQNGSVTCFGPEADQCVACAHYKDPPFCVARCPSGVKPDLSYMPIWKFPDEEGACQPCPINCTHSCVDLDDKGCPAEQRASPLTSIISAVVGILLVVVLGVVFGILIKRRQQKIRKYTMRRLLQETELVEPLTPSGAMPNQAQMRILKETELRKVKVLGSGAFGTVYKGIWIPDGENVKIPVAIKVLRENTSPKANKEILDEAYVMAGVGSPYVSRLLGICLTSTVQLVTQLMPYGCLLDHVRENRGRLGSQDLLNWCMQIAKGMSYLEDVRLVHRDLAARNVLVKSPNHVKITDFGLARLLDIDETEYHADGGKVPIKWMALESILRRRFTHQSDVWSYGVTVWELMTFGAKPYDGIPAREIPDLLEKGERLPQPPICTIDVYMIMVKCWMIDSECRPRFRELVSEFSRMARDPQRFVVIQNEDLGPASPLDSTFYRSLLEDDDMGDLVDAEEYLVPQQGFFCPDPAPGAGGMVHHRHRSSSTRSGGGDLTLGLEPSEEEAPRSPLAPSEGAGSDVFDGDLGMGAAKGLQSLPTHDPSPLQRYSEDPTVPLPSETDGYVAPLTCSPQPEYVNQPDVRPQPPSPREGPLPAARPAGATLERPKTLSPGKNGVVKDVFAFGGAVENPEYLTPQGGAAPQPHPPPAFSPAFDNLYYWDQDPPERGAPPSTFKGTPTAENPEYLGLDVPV

Sequence of Vascular endothelial growth factor receptor 2 (P35968 whole entry, the tested form may be a part): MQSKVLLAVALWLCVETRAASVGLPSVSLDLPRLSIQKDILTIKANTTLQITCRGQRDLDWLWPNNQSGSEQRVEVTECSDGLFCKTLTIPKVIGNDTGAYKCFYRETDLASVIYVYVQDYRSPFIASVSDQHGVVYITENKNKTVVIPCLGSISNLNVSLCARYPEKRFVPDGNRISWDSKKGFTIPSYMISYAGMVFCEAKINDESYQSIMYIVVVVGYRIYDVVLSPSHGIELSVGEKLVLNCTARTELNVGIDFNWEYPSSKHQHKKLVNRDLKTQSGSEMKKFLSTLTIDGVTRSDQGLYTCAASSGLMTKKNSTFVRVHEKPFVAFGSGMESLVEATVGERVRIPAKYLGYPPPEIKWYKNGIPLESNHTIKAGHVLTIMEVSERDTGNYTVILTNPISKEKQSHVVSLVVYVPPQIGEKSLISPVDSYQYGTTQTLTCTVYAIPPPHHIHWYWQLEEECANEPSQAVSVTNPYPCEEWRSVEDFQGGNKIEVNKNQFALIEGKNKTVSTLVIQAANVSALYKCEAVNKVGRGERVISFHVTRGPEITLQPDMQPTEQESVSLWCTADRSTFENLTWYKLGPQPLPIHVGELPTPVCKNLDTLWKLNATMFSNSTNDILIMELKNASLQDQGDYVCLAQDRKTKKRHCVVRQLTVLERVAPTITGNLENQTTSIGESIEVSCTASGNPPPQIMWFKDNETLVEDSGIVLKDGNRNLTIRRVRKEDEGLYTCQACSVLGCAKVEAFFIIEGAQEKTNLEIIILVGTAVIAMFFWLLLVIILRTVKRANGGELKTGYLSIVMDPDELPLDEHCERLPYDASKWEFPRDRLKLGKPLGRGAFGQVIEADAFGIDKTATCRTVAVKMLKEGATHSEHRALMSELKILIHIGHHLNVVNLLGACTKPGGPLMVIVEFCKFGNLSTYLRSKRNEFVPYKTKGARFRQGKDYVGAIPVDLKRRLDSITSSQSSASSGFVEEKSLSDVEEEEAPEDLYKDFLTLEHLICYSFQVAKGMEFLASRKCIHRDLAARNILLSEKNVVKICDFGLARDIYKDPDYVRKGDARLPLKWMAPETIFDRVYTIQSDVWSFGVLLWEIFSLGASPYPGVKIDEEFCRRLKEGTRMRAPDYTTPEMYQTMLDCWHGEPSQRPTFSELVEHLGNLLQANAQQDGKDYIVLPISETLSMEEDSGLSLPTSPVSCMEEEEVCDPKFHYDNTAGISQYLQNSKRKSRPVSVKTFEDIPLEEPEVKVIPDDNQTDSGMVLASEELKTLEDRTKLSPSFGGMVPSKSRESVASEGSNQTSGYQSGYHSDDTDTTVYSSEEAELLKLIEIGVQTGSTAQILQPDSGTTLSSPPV
Sequence of Ephrin type-A receptor 2 (P29317 whole entry, the tested form may be a part): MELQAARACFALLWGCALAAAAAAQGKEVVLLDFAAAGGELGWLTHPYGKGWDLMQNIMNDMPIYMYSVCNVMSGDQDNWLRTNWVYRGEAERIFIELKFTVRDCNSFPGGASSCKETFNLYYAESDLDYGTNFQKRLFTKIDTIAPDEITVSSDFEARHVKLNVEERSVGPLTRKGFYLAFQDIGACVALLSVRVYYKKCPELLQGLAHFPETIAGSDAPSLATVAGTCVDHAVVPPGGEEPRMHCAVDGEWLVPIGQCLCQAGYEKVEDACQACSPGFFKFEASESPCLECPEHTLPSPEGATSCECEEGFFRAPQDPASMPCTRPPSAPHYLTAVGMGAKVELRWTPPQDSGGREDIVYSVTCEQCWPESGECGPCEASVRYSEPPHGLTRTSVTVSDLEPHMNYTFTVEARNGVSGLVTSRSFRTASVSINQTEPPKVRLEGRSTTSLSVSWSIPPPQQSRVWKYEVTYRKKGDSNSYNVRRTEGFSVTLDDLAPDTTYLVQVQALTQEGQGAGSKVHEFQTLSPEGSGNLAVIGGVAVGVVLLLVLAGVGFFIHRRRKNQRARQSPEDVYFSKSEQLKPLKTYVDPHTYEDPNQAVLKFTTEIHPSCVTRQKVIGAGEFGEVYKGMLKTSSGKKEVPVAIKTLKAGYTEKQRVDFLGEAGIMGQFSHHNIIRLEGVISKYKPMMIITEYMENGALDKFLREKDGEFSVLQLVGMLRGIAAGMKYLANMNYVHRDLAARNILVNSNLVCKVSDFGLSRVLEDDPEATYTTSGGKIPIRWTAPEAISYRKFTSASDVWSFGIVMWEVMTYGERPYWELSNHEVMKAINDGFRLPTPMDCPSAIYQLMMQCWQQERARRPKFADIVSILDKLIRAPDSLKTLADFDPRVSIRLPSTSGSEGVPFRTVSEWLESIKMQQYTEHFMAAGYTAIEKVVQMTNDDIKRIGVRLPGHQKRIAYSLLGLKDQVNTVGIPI
Sequence of Vascular endothelial growth factor receptor 1 (P17948 whole entry, the tested form may be a part): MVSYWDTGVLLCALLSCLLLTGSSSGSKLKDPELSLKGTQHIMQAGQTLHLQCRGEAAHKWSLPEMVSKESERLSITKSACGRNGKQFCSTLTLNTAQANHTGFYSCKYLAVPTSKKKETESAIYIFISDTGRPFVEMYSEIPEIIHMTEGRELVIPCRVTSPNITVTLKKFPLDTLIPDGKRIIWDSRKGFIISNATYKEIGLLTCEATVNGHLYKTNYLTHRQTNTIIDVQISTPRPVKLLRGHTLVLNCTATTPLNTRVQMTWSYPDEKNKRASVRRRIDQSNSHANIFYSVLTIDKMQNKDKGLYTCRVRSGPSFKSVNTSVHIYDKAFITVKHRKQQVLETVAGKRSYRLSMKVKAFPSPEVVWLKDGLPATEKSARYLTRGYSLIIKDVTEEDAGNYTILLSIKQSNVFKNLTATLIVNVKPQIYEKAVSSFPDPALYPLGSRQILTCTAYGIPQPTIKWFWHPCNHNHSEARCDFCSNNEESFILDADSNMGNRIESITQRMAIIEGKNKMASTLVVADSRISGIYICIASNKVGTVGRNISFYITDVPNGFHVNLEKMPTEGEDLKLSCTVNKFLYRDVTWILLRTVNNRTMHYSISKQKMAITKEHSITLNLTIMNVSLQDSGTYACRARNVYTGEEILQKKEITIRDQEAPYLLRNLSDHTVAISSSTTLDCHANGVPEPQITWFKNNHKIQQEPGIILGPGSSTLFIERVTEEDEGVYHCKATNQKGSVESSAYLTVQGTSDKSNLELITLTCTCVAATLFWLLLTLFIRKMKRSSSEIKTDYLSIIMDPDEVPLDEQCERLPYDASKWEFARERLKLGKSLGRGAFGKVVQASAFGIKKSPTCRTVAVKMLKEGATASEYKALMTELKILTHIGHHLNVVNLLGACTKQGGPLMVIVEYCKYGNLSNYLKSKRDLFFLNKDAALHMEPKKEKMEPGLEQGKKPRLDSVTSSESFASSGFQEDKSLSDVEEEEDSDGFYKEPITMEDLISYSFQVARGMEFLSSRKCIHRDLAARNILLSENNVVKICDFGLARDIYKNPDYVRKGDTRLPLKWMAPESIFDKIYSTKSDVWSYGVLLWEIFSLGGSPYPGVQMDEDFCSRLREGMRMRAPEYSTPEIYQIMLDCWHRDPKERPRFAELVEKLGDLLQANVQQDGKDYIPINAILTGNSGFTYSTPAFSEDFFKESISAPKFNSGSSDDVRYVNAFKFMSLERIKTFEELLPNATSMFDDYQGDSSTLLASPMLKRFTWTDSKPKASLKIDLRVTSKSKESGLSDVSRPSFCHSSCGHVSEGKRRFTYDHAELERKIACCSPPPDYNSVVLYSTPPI

Turning to `COc1cc2c(Nc3cc(Cl)c(Br)cc3F)ncnc2cc1OC[C@H]1CN2CCOC[C@H]2CO1`, the IC50 in assay [1], in assay [2], in assay [3], in assay [4] and in assay [5] was 50 to 1000 nM in each case.

As for `COc1cc2c(Nc3ccc(Cl)c(Cl)c3F)ncnc2cc1OC[C@@H]1CN2CCC[C@H]2C(=O)N1C`, the IC50 was less than 50 nM in assay [1]; 50 to 1000 nM in assay [2]; 50 to 1000 nM in assay [3]; 50 to 1000 nM in assay [4]; 1000 to 20000 nM in assay [5].

For orientation: IC50 means the concentration at which inhibition is half-maximal.
